Laboratory results reported in PMC7539012, “Hyperphosphorylated tau aggregation and cytotoxicity modulators screen identified prescription drugs linked to Alzheimer's disease and cognitive functions” (Scientific Reports, 2020).
Structures can show the parent of a compound that is named as a salt.

System: T1, 1N4R p-tau
T1 construct: made in house; host or cells: E. coli (PIMAX system)
Assay: p-tau aggregation modulator screen of 1280-compound library (ThS fluorescence net change over 16 h)
Type: biochemical
Conditions: not given

Row | Compound | ThS net change
1 | COc1ccc([C@@H]2Sc3ccccc3N(CCN(C)C)C(=O)[C@@H]2OC(C)=O)cc1 [Diltiazem hydrochloride] | 308
2 | Cc1onc(-c2c(Cl)cccc2Cl)c1C(=O)N[C@@H]1C(=O)N2[C@@H]1SC(C)(C)[C@@H]2C(=O)[O-].O.[Na+] [Dicloxacillin sodium salt hydrate] | 415
3 | COc1cc(C)c(/C=C/C(C)=C/C=C/C(C)=C/C(=O)O)c(C)c1C [Acitretin] | 316
4 | CNNCc1ccc(C(=O)NC(C)C)cc1 [Procarbazine hydrochloride] | 457
5 | CN(C)CCCN1c2ccccc2Sc2ccc(C(F)(F)F)cc21 [Triflupromazine hydrochloride] | 280

Same assay, conditions: 1280-compound library screen; ThS fluorescence net change over 16 h

Row | Compound | ThS net change
6 | COc1ccc(C(=O)c2ccccc2)c(O)c1 [Oxybenzone] | 383
7 | O=C(c1ccccc1)c1ccc2n1CCC2C(=O)O (centres unmarked) [Ketorolac tromethamine] | 382
8 | O=c1[nH]c(=O)n([C@H]2C[C@H](O)[C@@H](CO)O2)cc1F [Floxuridine] | 388
9 | Clc1cnccn1 [2-Chloropyrazine] | 410
10 | CCN(CC)CC#CCOC(=O)C(O)(c1ccccc1)C1CCCCC1 (centres unmarked) [Oxybutynin chloride] | 400
11 | CCN(CC)CCOCCOC(=O)C1(c2ccccc2)CCCC1 [Carbetapentane citrate] | 402
12 | CC(=O)O[C@]1(C(C)=O)CC[C@H]2[C@@H]3C=C(Cl)C4=CC(=O)CC[C@]4(C)[C@H]3CC[C@@]21C [Chlormadinone acetate] | 385
13 | C#CCN(C)CCCOc1ccc(Cl)cc1Cl [Clorgyline hydrochloride] | 400
14 | CCN1CCC[C@H]1CNC(=O)c1c(O)c(Cl)cc(Cl)c1OC [Raclopride] | 382
15 | Cn1c(=O)c2c(ncn2CC(O)CO)n(C)c1=O (centres unmarked) [Diprophylline] | 381
16 | Cn1c(=O)c2[nH]cnc2n(C)c1=O [Aminophylline] | 403
17 | CC(c1cc2ccccc2s1)N(O)C(N)=O (centres unmarked) [Zileuton] | 410
18 | NS(=O)(=O)c1cc(Cl)c(Cl)c(S(N)(=O)=O)c1 [Dichlorphenamide] | 404
19 | CN1CCCC(CC2c3ccccc3Sc3ccccc32)C1 (centres unmarked) [Metixene hydrochloride] | 386

Same assay, conditions: 1280-compound library screen; […]

Row | Compound | ThS net change
20 | CCCCOC(=O)c1ccc(O)cc1 [Butylparaben] | 396
21 | NC(=O)C(c1ccccc1)(c1ccccc1)[C@@H]1CCN(CCc2ccc3c(c2)CCO3)C1 [Darifenacin hydrobromide] | 384
22 | CCCCCN(C)CCC(O)(P(=O)([O-])O)P(=O)(O)O.[Na+] [Ibandronate sodium] | 394
23 | O=P(O)(O)C(O)(Cn1ccnc1)P(=O)(O)O [Zoledronic acid hydrate] | 398

Same assay, conditions: library screen, ThS fluorescence net change over 16 h with p-tau

Row | Compound | ThS net change
24 | CN(C)[C@@H]1C(O)=C(C(N)=O)C(=O)[C@@]2(O)C(O)=C3C(=O)c4c(O)cccc4[C@@](C)(O)[C@H]3[C@H](O)[C@@H]12 [Oxytetracycline dihydrate] | 220
25 | CCCCC(CC)CNC(=N)NC(=N)NCCCCCCNC(=N)NC(=N)NCC(CC)CCCC (centres unmarked) [Alexidine dihydrochloride] | 327
26 | O=C(O)c1cc(-c2ccc(F)cc2F)ccc1O [Diflunisal] | 304
27 | Cl.Clc1ccc(Cn2c(CN3CCCC3)nc3ccccc32)cc1 [Clemizole hydrochloride] | 325
28 | Cc1ccccc1C(OCCN(C)C)c1ccccc1 (centres unmarked) [Orphenadrine hydrochloride] | 295
29 | COCCOC(=O)C1=C(C)NC(C)=C(C(=O)OC/C=C/c2ccccc2)C1c1cccc([N+](=O)[O-])c1 (centres unmarked) [Cilnidipine] | 230

Same assay, conditions: p-tau aggregation modulator screen of 1280-compound library; ThS fluorescence net change

Row | Compound | ThS net change
30 | CCC[C@@H]1C[C@@H](C(=O)N[C@@H]([C@H]2O[C@H](SC)[C@H](O)[C@@H](O)[C@H]2O)[C@H](C)Cl)N(C)C1 [Clindamycin hydrochloride] | 344
31 | O=c1[nH]c(=O)n([C@H]2C[C@H](O)[C@@H](CO)O2)cc1I [Idoxuridine] | 359
32 | COC(=O)Nc1nc2cc(C(=O)c3ccc(F)cc3)ccc2[nH]1 [Flubendazol] | 332
33 | Cc1cccc(Nc2ccccc2C(=O)O)c1C [Mefenamic acid] | 353
34 | CC(=O)c1ccc(S(=O)(=O)NC(=O)NC2CCCCC2)cc1 [Acetohexamide] | 360
35 | CN(C)CCOC(c1ccccc1)c1ccccc1.Cn1c(=O)c2[nH]c(Cl)nc2n(C)c1=O [Dimenhydrinate] | 345
36 | CC1(C)NC(=O)N(c2ccc([N+](=O)[O-])c(C(F)(F)F)c2)C1=O [Nilutamide] | 363
37 | NC(CO)C(=O)NNCc1ccc(O)c(O)c1O (centres unmarked) [Benserazide hydrochloride] | 372
38 | c1ccc2[nH]c(-c3cscn3)nc2c1 [Tiabendazole] | 355
39 | CO[C@H]1C[C@H](O[C@H]2[C@H](C)[C@@H](O[C@@H]3O[C@H](C)C[C@H](N(C)C)[C@H]3OC(C)=O)[C@@H](C)C[C@@]3(CO3)C(=O)[C@H](C)[C@@H](OC(C)=O)[C@@H](C)[C@@H](C)OC(=O)[C@@H]2C)O[C@@H](C)[C@@H]1OC(C)=O [Troleandomycin] | 357
40 | CCN(CC)CCNC(C(=O)OCCC(C)C)c1ccccc1.Cl.Cl (centres unmarked) [Camylofine chlorhydrate] | 342
41 | CN[C@@H]1[C@H](O[C@H]2[C@H](O[C@H]3[C@H](O)[C@@H](O)[C@H](NC(=N)N)[C@@H](O)[C@@H]3NC(=N)N)O[C@@H](C)[C@]2(O)CO)O[C@@H](CO)[C@H](O)[C@H]1O [Dihydrostreptomycin sulfate] | 331
42 | CN1CCN2c3ccccc3Cc3ccccc3C2C1.Cl (centres unmarked) [Mianserine hydrochloride] | 366
43 | O=C1CCC(N2C(=O)c3ccccc3C2=O)C(=O)N1 (centres unmarked) [Thalidomide] | 334
44 | CC(C)NCC(O)c1cc(O)cc(O)c1.CC(C)NCC(O)c1cc(O)cc(O)c1.O=S(=O)(O)O (centres unmarked) | 362
45 | Cl.Nc1c(Br)cc(Br)cc1CN[C@H]1CC[C@H](O)CC1 [Ambroxol hydrochloride] | 364
46 | CCCCC(CC)CN1CN(CC(CC)CCCC)CC(C)(N)C1 (centres unmarked) [Hexetidine] | 353
47 | O=C(O)c1cn(-c2ccc(F)cc2)c2cc(N3CCNCC3)c(F)cc2c1=O [Sarafloxacin] | 332
48 | NNCCc1ccccc1 [Phenelzine sulfate] | 369
49 | Cl.Nc1nc2ccc(OC(F)(F)F)cc2s1 [Riluzole hydrochloride] | 353
50 | CN(C)CCC=C1c2ccccc2COc2ccccc21 [Doxepin hydrochloride] | 341
51 | C=C1C[C@@H]2[C@H](CC[C@]3(C)C(=O)CC[C@@H]23)[C@@]2(C)C=CC(=O)C=C12 [Exemestane] | 373
52 | Cc1ccc(C)c(OCCCC(C)(C)C(=O)O)c1 [Gemfibrozil] | 353
53 | CC(C)[N+](C)(CCOC(=O)C1c2ccccc2Oc2ccccc21)C(C)C [Propantheline bromide] | 373
54 | CC(C)NC[C@@H](O)c1ccc(O)c(O)c1.O=C(O)C(O)C(O)C(=O)O [(+)-Isoproterenol (+)-bitartrate salt] | 345
55 | CCOC(=O)NNc1nncc2ccccc12 [Todralazine hydrochloride] | 334
56 | NCCCC[C@H](N[C@@H](CCc1ccccc1)C(=O)O)C(=O)N1CCC[C@H]1C(=O)O [Lisinopril] | 328

Same assay, conditions: p-tau aggregation modulator screen of 1280-compound library; […]

Row | Compound | ThS net change
57 | COc1ccc(C(=O)NCc2cccnc2)cc1C(=O)NCc1cccnc1.O [Picotamide monohydrate] | 355
58 | COc1cc2c(c(OC)c1OC)-c1ccc(OC)c(=O)cc1[C@@H](NC(C)=O)CC2 [Colchicine] | 336
59 | CC(C)CC(N(C)C)C1(c2ccc(Cl)cc2)CCC1.Cl (centres unmarked) [Sibutramine HCl] | 347

Same assay, conditions: p-tau aggregation modulator screen of the compound library, ThS fluorescence net change

Row | Compound | ThS net change
60 | CC(C)(C)NC[C@H](O)COc1nsnc1N1CCOCC1.O=C(O)/C=C\C(=O)O [Timolol maleate salt] | 414
61 | C[N+]1(C)[C@@H]2CC[C@H]1C[C@@H](OC(=O)C(CO)c1ccccc1)C2 (some centres unmarked) [Methylatropine nitrate] | 413
62 | COC(=O)[C@H](c1ccccc1Cl)N1CCc2sccc2C1 [Clopidogrel] | 499
63 | N[C@@H](Cc1ccc(O)c(O)c1)C(=O)O [Levodopa] | 444
64 | COc1ccc(C[C@@H]2c3cc(OC)c(OC)cc3CC[N@+]2(C)CCC(=O)OCCCCCOC(=O)CC[N@@+]2(C)CCc3cc(OC)c(OC)cc3[C@H]2Cc2ccc(OC)c(OC)c2)cc1OC [Cisatracurium besylate] | 458
65 | Cc1cn([C@H]2C=C[C@@H](CO)O2)c(=O)[nH]c1=O [Stavudine] | 428
66 | CC(=O)OCC(=O)[C@@]12OC3(CCCC3)O[C@@H]1C[C@H]1[C@@H]3CCC4=CC(=O)C=C[C@]4(C)[C@@]3(F)[C@@H](O)C[C@@]12C [Amcinonide] | 477
67 | Cc1ccc(S(=O)(=O)NC(=O)NN2CCCCCC2)cc1 [Tolazamide] | 458
68 | CC(=O)SCC(Cc1ccccc1)C(=O)NCC(=O)OCc1ccccc1 (centres unmarked) [Racecadotril] | 462
69 | Cn1c(=O)c2c(ncn2C)n(C)c1=O [Caffeine] | 428
70 | CC(C)[C@H]1CC[C@H](C(=O)N[C@H](Cc2ccccc2)C(=O)O)CC1 [Nateglinide] | 413
71 | NS(=O)(=O)c1cc2c(cc1C(F)(F)F)NCNS2(=O)=O [Hydroflumethiazide] | 425
72 | Cc1cccc(C)c1NC(=O)C1CCCCN1C (centres unmarked) [Mepivacaine hydrochloride] | 428
73 | CN1[C@@H]2CC[C@H]1CC(OC1c3ccccc3CCc3ccccc31)C2.O=C(O)CC(O)(CC(=O)O)C(=O)O (some centres unmarked) [Deptropine citrate] | 455
74 | CC1NC(=O)NC1=O (centres unmarked) [Methylhydantoin-5-(L)] | 449
75 | O=S(=O)(O)c1cc(O)ccc1O [Ethamsylate] | 455
76 | CC(C)Cn1cnc2c(N)nc3ccccc3c21 [Imiquimod] | 439
77 | Olmesartan | 482
